Results: PubChem BioAssay AID1963958 (Molecular Pharmacology Branch, DTP, NCI, 2024)

System: MDA-MB-231 multicell spheroids, viability
Test: Anticancer human tumor MDA-MB-231 cell line growth inhibition [PI3K];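 note: spheroids exposed to agents for seven days before reading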;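 for viability, T/C: percent of vehicle control luminescence with DMSO treated spheroids as 100%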
Settings: for IC50: curve of first compound; for viability, T/C: stronger effect = lower value
How it was run: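 Viability of mixed-cell spheroids was determined after exposure to pairwise combinations, one partner being inavolisib, alpelisib, duvelisib or copanlisib. Highest tested concentration matched clinical Cmax where known and 10 microM where not, descending in half-log steps.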

[1] = second compound 0.00316 µM, first compound 0.0316 µM
[2] = second compound 0.00316 µM, first compound 0.1 µM
[3] = second compound 0.00316 µM, first compound 0.316 µM
[4] = second compound 0.00316 µM, first compound 1 µM
[5] = second compound 0.01 µM, first compound 0.0316 µM
[6] = second compound 0.01 µM, first compound 0.1 µM
[7] = second compound 0.01 µM, first compound 0.316 µM
[8] = second compound 0.01 µM, first compound 1 µM
[9] = second compound 0.0316 µM, first compound 0.0316 µM
[10] = second compound 0.0316 µM, first compound 0.1 µM
[11] = second compound 0.0316 µM, first compound 0.316 µM
[12] = second compound 0.0316 µM, first compound 1 µM
[13] = second compound 0.1 µM, first compound 0.0316 µM
[14] = second compound 0.1 µM, first compound 0.1 µM
[15] = second compound 0.1 µM, first compound 0.316 µM
[16] = second compound 0.1 µM, first compound 1 µM
[17] = second compound 0.316 µM, first compound 0.0316 µM
[18] = second compound 0.316 µM, first compound 0.1 µM
[19] = second compound 0.316 µM, first compound 0.316 µM
[20] = second compound 0.316 µM, first compound 1 µM
[21] = second compound 1 µM, first compound 0.0316 µM
[22] = second compound 1 µM, first compound 0.1 µM
[23] = second compound 1 µM, first compound 0.316 µM
[24] = second compound 1 µM, first compound 1 µM
[25] = second compound 0.00316 µM, first compound 0.00316 µM
[26] = second compound 0.00316 µM, first compound 0.01 µM
[27] = second compound 0.01 µM, first compound 0.00316 µM
[28] = second compound 0.01 µM, first compound 0.01 µM
[29] = second compound 0.0316 µM, first compound 0.00316 µM
[30] = second compound 0.0316 µM, first compound 0.01 µM
[31] = second compound 0.1 µM, first compound 0.00316 µM
[32] = second compound 0.1 µM, first compound 0.01 µM
[33] = second compound 0.316 µM, first compound 0.00316 µM
[34] = second compound 0.316 µM, first compound 0.01 µM
[35] = second compound 1 µM, first compound 0.00316 µM
[36] = second compound 1 µM, first compound 0.01 µM

For CC(C)NCC(C(=O)N1CCN(c2ncnc3c2C(C)CC3O)CC1)c1ccc(Cl)cc1 (stereo unspecified) + COc1c(OCCCN2CCOCC2)ccc2c3n(c(=NC(=O)c4cnc(N)nc4)nc12)CCN3, the IC50 (second compound 0.00316 µM) was 7.26 µM, the IC50 (second compound 0.01 µM) was 4.83 µM and the IC50 (second compound 0.0316 µM) was 1.84 µM. It also gave an IC50 (second compound 0.1 µM) of less than 0.0316 µM, an IC50 (second compound 0.316 µM) of less than 0.0316 µM and an IC50 (second compound 1 µM) of less than 0.0316 µM. For the same molecule, the viability, T/C [1] was 96.1%, the viability, T/C [2] was 93.7% and the viability, T/C [3] was 83.5%. The viability, T/C [4] was 74.6%, the viability, T/C (second compound 0.00316 µM, first compound 3.16 µM) was 59.3% and the viability, T/C (second compound 0.00316 µM, first compound 10 µM) was 46.3%. It also gave a viability, T/C [5] of 81.8%, a viability, T/C [6] of 81.4% and a viability, T/C [7] of 69.2%. For the same molecule, the viability, T/C [8] was 62.6%, the viability, T/C (second compound 0.01 µM, first compound 3.16 µM) was 54.7% and the viability, T/C (second compound 0.01 µM, first compound 10 µM) was 43.4%. It also gave a viability, T/C [9] of 61.6%, a viability, T/C [10] of 59.1% and a viability, T/C [11] of 55.8%. The viability, T/C [12] was 56.3%, the viability, T/C (second compound 0.0316 µM, first compound 3.16 µM) was 45.6% and the viability, T/C (second compound 0.0316 µM, first compound 10 µM) was 33.9%. For the same molecule, the viability, T/C [13] was 48.5%, the viability, T/C [14] was 48.7% and the viability, T/C [15] was 45.6%. The viability, T/C [16] was 39.3%, the viability, T/C (second compound 0.1 µM, first compound 3.16 µM) was 37.9% and the viability, T/C (second compound 0.1 µM, first compound 10 µM) was 28.9%. It also gave a viability, T/C [17] of 32.9%, a viability, T/C [18] of 34% and a viability, T/C [19] of 31.2%. It also gave a viability, T/C [20] of 30.1%, a viability, T/C (second compound 0.316 µM, first compound 3.16 µM) of 25.5% and a viability, T/C (second compound 0.316 µM, first compound 10 µM) of 18.7%. The viability, T/C [21] was 23.8%, the viability, T/C [22] was 23.7% and the viability, T/C [23] was 24.9%. The viability, T/C [24] was 23%, the viability, T/C (second compound 1 µM, first compound 3.16 µM) was 24.8% and the viability, T/C (second compound 1 µM, first compound 10 µM) was 18.8%.
CCN1CCN(Cc2ccc(Nc3ncc(F)c(-c4cc(F)c5nc(C)n(C(C)C)c5c4)n3)nc2)CC1 + COc1c(OCCCN2CCOCC2)ccc2c3n(c(=NC(=O)c4cnc(N)nc4)nc12)CCN3 was tested, and the IC50 (second compound 0.00316 µM) was 0.195 µM, the IC50 (second compound 0.01 µM) was 0.0654 µM and the IC50 (second compound 0.0316 µM) was 0.00845 µM. It also gave an IC50 (second compound 0.1 µM) of less than 0.00316 µM, an IC50 (second compound 0.316 µM) of less than 0.00316 µM and an IC50 (second compound 1 µM) of less than 0.00316 µM. For the same molecule, the viability, T/C [25] was 89%, the viability, T/C [26] was 79.4% and the viability, T/C [1] was 72.3%. It also gave a viability, T/C [2] of 52.1%, a viability, T/C [3] of 47.7% and a viability, T/C [4] of 45.1%. The viability, T/C [27] was 77.8%, the viability, T/C [28] was 66.2% and the viability, T/C [5] was 57.2%. It also gave a viability, T/C [6] of 46.5%, a viability, T/C [7] of 39.7% and a viability, T/C [8] of 40.2%. It also gave a viability, T/C [29] of 56%, a viability, T/C [30] of 50.9% and a viability, T/C [9] of 43.9%. For the same molecule, the viability, T/C [10] was 38.4%, the viability, T/C [11] was 35.9% and the viability, T/C [12] was 39.6%. It also gave a viability, T/C [31] of 45.1%, a viability, T/C [32] of 40% and a viability, T/C [13] of 33.4%. It also gave a viability, T/C [14] of 27.9%, a viability, T/C [15] of 31% and a viability, T/C [16] of 38.1%. For the same molecule, the viability, T/C [33] was 30%, the viability, T/C [34] was 27.2% and the viability, T/C [17] was 24.1%. It also gave a viability, T/C [18] of 22.4%, a viability, T/C [19] of 28% and a viability, T/C [20] of 42.7%. The viability, T/C [35] was 24.6%, the viability, T/C [36] was 22.5% and the viability, T/C [21] was 22.4%. It also gave a viability, T/C [22] of 25.5%, a viability, T/C [23] of 43.7% and a viability, T/C [24] of 83.2%.
With Cn1ncnc1[C@H]1c2n[nH]c(=O)c3cc(F)cc(c23)N[C@@H]1c1ccc(F)cc1 + COc1c(OCCCN2CCOCC2)ccc2c3n(c(=NC(=O)c4cnc(N)nc4)nc12)CCN3 the IC50 (second compound 0.00316 µM) was greater than 0.1 µM, the IC50 (second compound 0.01 µM) was greater than 0.1 µM and the IC50 (second compound 0.0316 µM) was 0.0384 µM. The IC50 (second compound 0.1 µM) was less than 0.000316 µM, the IC50 (second compound 0.316 µM) was less than 0.000316 µM and the IC50 (second compound 1 µM) was less than 0.000316 µM. The viability, T/C (second compound 0.00316 µM, first compound 0.000316 µM) was 94%, the viability, T/C (second compound 0.00316 µM, first compound 0.001 µM) was 89.6% and the viability, T/C [25] was 91.4%. For the same molecule, the viability, T/C [26] was 78.5%, the viability, T/C [1] was 78.5% and the viability, T/C [2] was 72.9%. For the same molecule, the viability, T/C (second compound 0.01 µM, first compound 0.000316 µM) was 76.4%, the viability, T/C (second compound 0.01 µM, first compound 0.001 µM) was 76.7% and the viability, T/C [27] was 68.9%. The viability, T/C [28] was 64.8%, the viability, T/C [5] was 67.2% and the viability, T/C [6] was 60.3%. It also gave a viability, T/C (second compound 0.0316 µM, first compound 0.000316 µM) of 57.8%, a viability, T/C (second compound 0.0316 µM, first compound 0.001 µM) of 59.2% and a viability, T/C [29] of 53.8%. For the same molecule, the viability, T/C [30] was 53.5%, the viability, T/C [9] was 51.7% and the viability, T/C [10] was 46.1%. It also gave a viability, T/C (second compound 0.1 µM, first compound 0.000316 µM) of 46.4%, a viability, T/C (second compound 0.1 µM, first compound 0.001 µM) of 46.6% and a viability, T/C [31] of 43%. The viability, T/C [32] was 43.7%, the viability, T/C [13] was 39.7% and the viability, T/C [14] was 37.5%. It also gave a viability, T/C (second compound 0.316 µM, first compound 0.000316 µM) of 31.8%, a viability, T/C (second compound 0.316 µM, first compound 0.001 µM) of 32.3% and a viability, T/C [33] of 32.4%. For the same molecule, the viability, T/C [34] was 29.6%, the viability, T/C [17] was 30.1% and the viability, T/C [18] was 25.7%. It also gave a viability, T/C (second compound 1 µM, first compound 0.000316 µM) of 24.4%, a viability, T/C (second compound 1 µM, first compound 0.001 µM) of 23.5% and a viability, T/C [35] of 24.6%. For the same molecule, the viability, T/C [36] was 23.5%, the viability, T/C [21] was 25.7% and the viability, T/C [22] was 22.4%.
